Test results: patent publication US20030104393A1, “Blood assessment of injury” (priority 2000, published 2003)

System: blood cells
Assay: Blood pattern of gene expression in epileptic individuals treated with anticonvulsant valporate or carbamazepine (Affymetrix U95A, SAM)
Format: in vivo, human
Details: for Upregulated genes for Carbamazepine: blood of epileptic individuals treated with carbamazepine vs epileptic individuals taking no anticonvulsant, value = Genbank accession of the upregulated gene; for Pattern of expression in blood for each drug: epileptic individuals treated with anticonvulsant vs epileptic individuals taking no anticonvulsant, FIG. 5
Text: FIG. 5 is a cluster analysis of the expression obtained from pediatric epilepsy patients prior to being treated compared to the expression of these individuals after being treated with anticonvulsant valporate (VPA) or the anticonvulsant carbamazepine (CPZ), as described in the Example 8;
To study the gene expression in Parkinson's patients, blood from over 30 patients is collected from healthy controls as well as from patients with a variety of disorders, including idiopathic Parkinson's patients with bradykinesia, rigidity and the characteristic tremor without dementia or evidence of any other neurological findings; progressive supranuclear palsy, bipolar disorder, schizophrenia, epilepsy, and Tourettes. A commercially available kit (Qiagen) is used to the blood cells from the whole blood samples, and total RNA isolated from the white blood cells. Two thirds of the RNA is used on DNA microarrays, and one third is used for PCR confirmation of the genes that are changed. After the purity of the RNA is checked ([…]), cDNA is synthesized from the total RNA and used to make biotin labeled cRNA. The cRNA is then applied to Affymetrix chips, human U95A chips that can screen for the expression of over 13,000 human genes including 11,000 known genes and 2,000 ESTs, and processed and scanned according to manufacturer's instructions. The chips are scanned twice for each patient sample. Genes that are expressed over two-fold compared to normals are plotted on figures. These genes are confirmed using standard techniques including PCR, Northern blotting or Western blotting. A separate statistical analysis is also applied to the data. […] Once this analysis is performed, the data is used to perform a class prediction analysis. […] The expression value of the genes is shown on the Y axis and the individual patients are plotted on the X-axis.
Blood is obtained from epileptic individuals, epileptic individuals being treated with anticonvulsant valporate and epileptic individuals being treated with anticonvulsant carbamazepine. A pattern of expression is captured and analyzed for each injury state as described in Example 4.

| SMILES | Upregulated genes for Carbamazepine (gene AA883870: am26f01.s1 Homo sapiens cDNA, 3 end) | Upregulated genes for Carbamazepine (gene AB000824: Homo sapiens mRNA for trehalase, complete cds) | Pattern of expression in blood for each drug |
| --- | --- | --- | --- |
| NC(=O)N1c2ccccc2C=Cc2ccccc21 [Carbamazepine, carbamazepine] | AA883870 | AB000824 | different from each other and different from the controls |
| CCCC(CCC)C(=O)O [Valporate, valporate] |  |  | different from each other and different from the controls |
